The text below walks through data of ChEMBL document CHEMBL1148806 (J Med Chem, 2007).

The target in assay [1] is T1, Beta-2 adrenergic receptor (Cavia porcellus, UniProt Q8K4Z4).
Assay [2] concerns the target Beta-2 adrenergic receptor (Rattus norvegicus) (UniProt P10608). The format is functional, tissue-based. The conditions noted are these: Thoracic aorta, 100 uM.
The test system of assay [3] is Liver microsomes. Nature of the assay: Antioxidant activity in rat hepatic microsomal membrane at 1 mM. To be noted: Microsome. The format is functional.
Assay [4] can be described thus: Effect on nitric oxide release in phosphate buffer at pH 7.4 in presence of cysteine at 100 uM. The format is functional.
In assay [5] the target is T2, Beta-2 adrenergic receptor (Rattus norvegicus, UniProt P10608). Nature of the assay: Vasodilating activity against phenylephrine-induced contractions in rat thoracic aorta.
T2 sequence (P10608 whole entry): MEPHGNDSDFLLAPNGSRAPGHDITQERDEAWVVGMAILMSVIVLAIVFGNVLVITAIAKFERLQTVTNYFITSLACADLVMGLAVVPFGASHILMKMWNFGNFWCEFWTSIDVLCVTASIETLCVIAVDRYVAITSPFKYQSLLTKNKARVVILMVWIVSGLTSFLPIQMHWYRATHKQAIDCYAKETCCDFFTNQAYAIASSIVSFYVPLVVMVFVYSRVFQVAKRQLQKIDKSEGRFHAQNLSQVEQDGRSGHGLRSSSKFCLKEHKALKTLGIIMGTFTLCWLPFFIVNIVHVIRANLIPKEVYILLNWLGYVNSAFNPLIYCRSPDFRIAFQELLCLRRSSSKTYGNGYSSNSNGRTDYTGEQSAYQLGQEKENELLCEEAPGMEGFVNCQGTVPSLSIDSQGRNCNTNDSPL
For assay [6], the target named is T2, Beta-2 adrenergic receptor.
Description: Vasodilating activity against phenylephrine-induced contraction in rat thoracic aorta in presence of 1H-[1,2,4]oxadiazolo-[4,3-a]quinoxalin-1-one
Assay [7] relates to Liver microsomes. Nature of the assay: Antioxidant activity in rat hepatic microsomal membrane.
Assay [8] concerns the target Beta-2 adrenergic receptor (Rattus norvegicus) (UniProt P10608). Nature of the assay: Vasodilating activity in rat thoracic aorta on phenylephrine-induced contraction at 100 uM. It is filed as functional, tissue-based.
Assay [9] concerns the target Beta-2 adrenergic receptor (Cavia porcellus) (UniProt Q8K4Z4). Nature of the assay: Agonist activity at adrenergic beta-2 receptor in guinea pig tracheal rings assessed as myorelaxing activity on carbachol-induced contraction at 100 uM. It is filed as functional. Also on record: scale not given: the % may be the effect or the level left.
The target of assay [10] is T1, Beta-2 adrenergic receptor. The source holds these as a separate data set.
Description: Agonist activity at adrenergic beta-2 receptor in guinea pig tracheal rings assessed as myorelaxing activity on carbachol-induced contraction in presence of 1H-[1,2,4]oxadiazolo-[4,3-a]quinoxalin-1-one
Assay [11] concerns the target T1, Beta-2 adrenergic receptor. This is another data set of the same source.

Each structure is given as a SMILES string. Calls of active or inactive are those of the source. No cut-off for these calls is given here.

Chain of Beta-2 adrenergic receptor (Rattus norvegicus) (P10608 whole entry, looked up): as the sequence (P10608 whole entry) above
T1 sequence (Q8K4Z4 whole entry): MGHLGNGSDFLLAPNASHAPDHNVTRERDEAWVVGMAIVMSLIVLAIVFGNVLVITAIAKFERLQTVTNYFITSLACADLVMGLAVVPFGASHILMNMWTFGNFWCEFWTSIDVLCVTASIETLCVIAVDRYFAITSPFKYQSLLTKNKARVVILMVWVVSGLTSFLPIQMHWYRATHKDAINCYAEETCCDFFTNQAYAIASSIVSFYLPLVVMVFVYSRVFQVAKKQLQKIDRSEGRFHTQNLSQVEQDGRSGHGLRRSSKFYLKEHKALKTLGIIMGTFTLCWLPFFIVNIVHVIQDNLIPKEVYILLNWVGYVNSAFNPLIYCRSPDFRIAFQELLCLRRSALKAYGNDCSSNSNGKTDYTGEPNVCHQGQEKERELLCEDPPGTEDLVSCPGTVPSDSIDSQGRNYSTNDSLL
Chain of Beta-2 adrenergic receptor (Cavia porcellus) (Q8K4Z4 whole entry, looked up): as the sequence (Q8K4Z4 whole entry) above

The EC50 is the concentration at which the effect is half-maximal. Take `NC(=O)c1c(CO)no[n+]1[O-]`: the EC50 in [1] turned out to be 86000 nM; in assay [5], 6300 nM. Also, the Activity is less than 50% in assay [2] and 12% in assay [4]. The result in assay [3] was inactive.
In general, IC50 refers to the concentration that inhibits the measured activity by half. `CCOc1no[n+]([O-])c1S(=O)(=O)c1ccccc1`: the EC50 in assay [1] turned out to be 2300 nM; in assay [6] it was 1200 nM; in assay [5], 12 nM. For the same molecule, in assay [4], the Activity turned out to be 36%. The molecule also gave an IC50 in assay [7] of 110 µM.
With `Cc1c(CO)no[n+]1[O-]`, the outcome in assay [3] was inactive. The Activity in assay [4] is less than 1%; in assay [8], less than 50%; in assay [9], less than 50%.
In the case of `CC(Cc1ccc(OCc2no[n+]([O-])c2C(N)=O)cc1)NCC(O)c1cc(O)cc(O)c1` (racemic) [listing 1 of 2 here], the EC50 in assay [1] amounted to 1000 nM; in assay [10] it was 1100 nM; in [6], 16000 nM; in assay [5], 1200 nM.
Consider `CC(Cc1ccc(OCc2no[n+]([O-])c2C(N)=O)cc1)NCC(O)c1cc(O)cc(O)c1` (racemic) [listing 2 of 2 here], for which the Activity in assay [4] was 10.4%.
With `CC(Cc1ccc(Oc2no[n+]([O-])c2S(=O)(=O)c2ccccc2)cc1)NCC(O)c1cc(O)cc(O)c1` (stereo in doubt; 15a) [listing 1 of 2 here], the EC50 in assay [1] amounted to 18 nM; in assay [10] it was 17 nM; in assay [6], 860 nM; in assay [5], 14 nM. The molecule also came in with an IC50 in assay [7] of 13.5 µM.
With `CC(Cc1ccc(Oc2no[n+]([O-])c2S(=O)(=O)c2ccccc2)cc1)NCC(O)c1cc(O)cc(O)c1` (stereo in doubt; 15a) [listing 2 of 2 here], the Activity in [4] came to 28.4%.
With `CC(Cc1ccc(Oc2no[n+]([O-])c2S(=O)(=O)c2ccccc2)cc1)NCC(O)c1cc(O)cc(O)c1` (stereo in doubt; 15b) [listing 1 of 2 here], the EC50 in [1] is 250 nM; in assay [10], 440 nM; in assay [6], 1300 nM; in assay [5] it was 14 nM.
Consider `CC(Cc1ccc(Oc2no[n+]([O-])c2S(=O)(=O)c2ccccc2)cc1)NCC(O)c1cc(O)cc(O)c1` (stereo in doubt; 15b) [listing 2 of 2 here], for which the Activity in [4] stood at 27.5%.
In [1], `CC(Cc1ccc(Oc2nonc2S(=O)(=O)c2ccccc2)cc1)NCC(O)c1cc(O)cc(O)c1` (stereo in doubt; 16a) registered a 50% effective concentration (EC50) of 39 nM. The molecule also had an IC50 in assay [7] of 57 µM.
On to `CC(Cc1ccc(Oc2nonc2S(=O)(=O)c2ccccc2)cc1)NCC(O)c1cc(O)cc(O)c1` (stereo in doubt; 16b), for which the EC50 in assay [11] was determined as 39 nM.
As to `CC(Cc1ccc(OCc2no[n+]([O-])c2C(N)=O)cc1)NCC(O)c1cc(O)cc(O)c1` (stereo in doubt; 34a) [listing 1 of 2 here], the EC50 in [1] was found to be 110 nM; in [10], 130 nM; in assay [6] it was 14000 nM; in assay [5] it was 1200 nM. The molecule further showed an IC50 in assay [7] of 156 µM.
With `CC(Cc1ccc(OCc2no[n+]([O-])c2C(N)=O)cc1)NCC(O)c1cc(O)cc(O)c1` (stereo in doubt; 34a) [listing 2 of 2 here], in assay [4], the Activity came to 11.5%.
`CC(Cc1ccc(OCc2nonc2C(N)=O)cc1)NCC(O)c1cc(O)cc(O)c1` (stereo in doubt; 35a): it took 29 nM to reach a half-maximal effect in assay [1] (EC50). In addition, in assay [7], the IC50 was 286 µM.
`CC(Cc1ccc(OCc2nonc2C(N)=O)cc1)NCC(O)c1cc(O)cc(O)c1` (stereo in doubt; 35b): in [1], the EC50 stood at 170 nM.
For `Cc1c(COc2ccc(CC(C)NCC(O)c3cc(O)cc(O)c3)cc2)no[n+]1[O-]` (stereo in doubt; 36a) [listing 1 of 2 here], the EC50 worked out at 220 nM in assay [1], 230 nM in assay [10] and 18000 nM in assay [5]. Further, the IC50 in assay [7] came to 298 µM.
As to `Cc1c(COc2ccc(CC(C)NCC(O)c3cc(O)cc(O)c3)cc2)no[n+]1[O-]` (stereo in doubt; 36a) [listing 2 of 2 here], the Activity was less than 50% in [2] and less than 1% in [4].
In the case of `Cc1c(COc2ccc(CC(C)NCC(O)c3cc(O)cc(O)c3)cc2)no[n+]1[O-]` (stereo in doubt; 36b) [listing 1 of 2 here], the values for the EC50 in assay [1], in assay [10] and in assay [5] were 1300 nM, 1200 nM and 20000 nM, respectively.
Take `Cc1c(COc2ccc(CC(C)NCC(O)c3cc(O)cc(O)c3)cc2)no[n+]1[O-]` (stereo in doubt; 36b) [listing 2 of 2 here]: the Activity in assay [2] is less than 50%; in assay [4] it was less than 1%.
`Cc1nonc1COc1ccc(CC(C)NCC(O)c2cc(O)cc(O)c2)cc1` (stereo in doubt; 37a) showed a concentration giving a half-maximal response (EC50) in assay [1] of 110 nM. Besides, in [7], the midpoint of inhibition, the IC50, lay at 123 µM.
Regarding `Cc1nonc1COc1ccc(CC(C)NCC(O)c2cc(O)cc(O)c2)cc1` (stereo in doubt; 37b), the EC50 in assay [1] amounted to 2200 nM.
